ChEMBL document CHEMBL1201862, “PubChem BioAssay data set” (2004)
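Where inhibition never reached the appropriate level, the endpoint shown equals the highest concentration tested. Otherwise, values were interpolated linearly from a five-concentration, 48-hour dose response in 96-well plates. The concentration for 50% growth inhibition is given as GI50.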 Active and inactive are the calls of the source. Rule as the data show it: active = GI50 up to about 1.1 µM and inactive = higher.

Assays:
Experiment in all cases: NCI-60 cell line screen, 48 h
[1] = test system: UACC-62
[2] = test system: CAKI-1
[3] = test system: RXF 393
[4] = test system: UACC-257
[5] = test system: LOX IMVI
[6] = test system: MDA-MB-435
[7] = test system: NCI-H460
[8] = test system: XF498
[9] = test system: K562
[10] = test system: MDA-MB-231
[11] = test system: T47D
[12] = test system: A549
[13] = test system: LXFL 529
[14] = test system: MDA-N
[15] = test system: PC-3
[16] = test system: UO-31
[17] = test system: M19-MEL
[18] = test system: NCI-H226
[19] = test system: ACHN
[20] = test system: SNB-75
[21] = test system: MOLT-4
[22] = test system: M14
[23] = test system: SN12C
[24] = test system: SW-620
[25] = test system: HCC 2998
[26] = test system: HOP-62
[27] = test system: NCI/ADR-RES
[28] = test system: TK-10
[29] = test system: SR
[30] = test system: CCRF-CEM
[31] = test system: KM12
[32] = test system: HCT-15
[33] = test system: EKVX
[34] = test system: DMS-273
[35] = test system: SK-OV-3
[36] = test system: A498
[37] = test system: HT-29
[38] = test system: OVCAR-4
[39] = test system: Malme-3M
[40] = test system: SK-MEL-28
[41] = test system: HOP-18
[42] = test system: NCI-H23
[43] = test system: SNB-78
[44] = test system: SK-MEL-2
[45] = test system: DLD-1
[46] = test system: COLO 205
[47] = test system: MCF7
[48] = test system: U-251
[49] = test system: OVCAR-5
[50] = test system: HCT-116
[51] = test system: Hs-578T
[52] = test system: KM-20L2
[53] = test system: SNB-19
[54] = test system: BT-549
[55] = test system: 786-0
[56] = test system: OVCAR-3
[57] = test system: HOP-92
[58] = test system: SF-295
[59] = test system: IGROV-1

N/C(S)=N/N=C/c1ncccc1O
GI50 [1]: 482 nM (active)
GI50 [2]: 927 nM (active)
GI50 [3]: 843 nM (active)
GI50 [4]: 2490 nM (inactive)
GI50 [5]: 925 nM (active)
GI50 [6]: 3810 nM (inactive)
GI50 [7]: 1290 nM (inactive)
GI50 [8]: 1510 nM (inactive)
GI50 [9]: 1830 nM (inactive)
GI50 [10]: 4290 nM (inactive)
GI50 [11]: 3140 nM (inactive)
GI50 [12]: 2320 nM (inactive)
GI50 [13]: 2750 nM (inactive)
GI50 [14]: 3770 nM (inactive)
GI50 [15]: 2970 nM (inactive)
GI50 [16]: 701 nM (active)
GI50 [17]: 1910 nM (inactive)
GI50 [18]: 2950 nM (inactive)
GI50 [19]: 766 nM (active)
GI50 [20]: 1940 nM (inactive)
GI50 [21]: 787 nM (active)
GI50 [22]: 1950 nM (inactive)
GI50 [23]: 964 nM (active)
GI50 [24]: 1640 nM (inactive)
GI50 [25]: 9080 nM (inactive)
GI50 [26]: 1230 nM (inactive)
GI50 [27]: 757 nM (active)
GI50 [28]: 9570 nM (inactive)
GI50 [29]: 3010 nM (inactive)
GI50 [30]: 475 nM (active)
GI50 [31]: 2600 nM (inactive)
GI50 [32]: 1500 nM
GI50 [33]: 2350 nM (inactive)
GI50 [34]: 508 nM (active)
GI50 [35]: 4210 nM (inactive)
GI50 [36]: 2250 nM (inactive)
GI50 [37]: 3560 nM (inactive)
GI50 [38]: 2960 nM (inactive)
GI50 [39]: 1950 nM (inactive)
GI50 [40]: 4290 nM (inactive)
GI50 [41]: 2250 nM (inactive)
GI50 [42]: 597 nM (active)
GI50 [43]: 81800 nM (inactive)
GI50 [44]: 6840 nM (inactive)
GI50 [45]: 2260 nM (inactive)
GI50 [46]: 2830 nM (inactive)
GI50 [47]: 723 nM (active)
GI50 [48]: 1730 nM (inactive)
GI50 [49]: 3100 nM (inactive)
GI50 [50]: 1760 nM (inactive)
GI50 [51]: 30800 nM (inactive)
GI50 [52]: 1390 nM (inactive)
GI50 [53]: 2650 nM (inactive)
GI50 [54]: 3470 nM (inactive)
GI50 [55]: 1160 nM (inactive)
GI50 [56]: 1880 nM (inactive)
GI50 [57]: 520 nM (active)
GI50 [58]: 766 nM (active)
GI50 [59]: 1550 nM (inactive)
